From US11633379B2, “Methods of inhibiting PCSK9” (TRUSTEES OF DARTMOUTH COLLEGE, priority 2017, dated 2023)
Where two headings read alike, the source gives them in different places.

Legend:
PCSK9 = assay: Basal_PCSK9 HepG2, primary SP and CRC (secreted PCSK9, ELISA); type: cell-based, human
Procedure: To study the effect of the compounds on PCSK9 secretion we used 1×10^6 HepG2 cells in 6-well culture plates, followed by incubation with media only, media+0.1% DMSO or Media+5 uM of 31/33/34/35 in 0.1% DMSO and collection of 50 ul of media at 8, 16, 24 and 40 hours or incubation with increasing concentration (0.2-50 μM) of 34 in 0.1% DMSO for 24 hours and collection of 50 ul of media. The collected media was analyzed for PCSK9 levels using commercially available ELISA kit (MBL-international, catalog # CY-8079) following the manufacturer instruction.
The below data (Table 2) was generated using the assays as discussed in Examples 1-2. Blanks mean no testing was performed. […] For the SP assays, the higher the number, the higher the inhibition, e.g., the better the activity of the compound. Compounds with a determined IC50 are particularly active, the IC50 values were determined via dose response curve (under the heading CRC which stands for concentration response curve aka dose response curve).

[1] = molecular target: T1, PCSK9 binding to LDLR (EGF-A domain) (Homo sapiens, UniProt Q8NBP7); assay: PCSK9-LDLR interaction ELISA; details: FIG. 5B
T1 construct: purchased MBL-international CY-8150
T1 sequence (Q8NBP7 153-692): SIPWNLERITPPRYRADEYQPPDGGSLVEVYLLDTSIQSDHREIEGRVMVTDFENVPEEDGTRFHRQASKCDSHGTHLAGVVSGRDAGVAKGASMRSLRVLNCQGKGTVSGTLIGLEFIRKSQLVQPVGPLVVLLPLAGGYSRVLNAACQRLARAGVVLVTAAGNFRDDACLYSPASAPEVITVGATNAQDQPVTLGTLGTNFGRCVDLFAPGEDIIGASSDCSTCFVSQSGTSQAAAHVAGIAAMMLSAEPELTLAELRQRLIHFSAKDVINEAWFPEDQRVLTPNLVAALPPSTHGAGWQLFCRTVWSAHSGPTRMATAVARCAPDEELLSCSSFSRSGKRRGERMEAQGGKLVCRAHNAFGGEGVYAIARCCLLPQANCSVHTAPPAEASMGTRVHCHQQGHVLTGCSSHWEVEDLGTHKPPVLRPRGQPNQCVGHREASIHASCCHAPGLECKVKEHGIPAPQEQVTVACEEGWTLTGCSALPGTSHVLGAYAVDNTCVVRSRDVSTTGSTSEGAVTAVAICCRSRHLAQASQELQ
T1 sequence (Q8NBP7 31-152 partner limits assumed): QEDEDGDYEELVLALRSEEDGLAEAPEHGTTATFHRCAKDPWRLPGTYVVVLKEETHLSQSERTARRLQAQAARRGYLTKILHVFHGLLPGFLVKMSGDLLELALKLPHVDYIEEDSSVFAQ
Procedure: To study whether increasing concentrations of 34 (0.2-50 μM) directly interfere with PCSK9-LDLR interaction we used a commercially available ELISA kit (MBL-international, catalog # CY-8150) following the manufacturer instruction.

LDLR = LDLR levels in HepG2 cells (western blot); type: cell-based, human; details: 5 μM, FIG. 3
Description: Protein extracts (IMO were used for immunodetection of intracellular LDLR (western blot analysis) with a commercially available primary antibody against LDLR (ABCAM, catalog #14056), HRP-conjugated secondary antibody (ABCAM, catalog #97135) visualized using an enhanced chemiluminescence (ECL) solution (Cumaric acid, Luminol and hydrogen peroxide), developed in a LiCore imager. See FIG. 3.

HepG2 cells [2] = assay: Cell survival, MTT assay; type: cell-based, human
Procedure: To study the effect of the compound on cell viability we used 1.25×10^5 HepG2 cells in 96-well culture plates, followed by incubation with media only, media+0.1% DMSO or Media+5 uM of 31/33/34/35 in 0.1% DMSO or with increasing concentration (0.2-50 μM) of 34 in 0.1% DMSO for 40 hours followed by a viability assay knows as MTT. The MTT assay is a colorimetric assay for assessing cell metabolic activity. NAD(P)H-dependent cellular oxidoreductase enzymes may, reflects the number of viable cells present. These enzymes are capable of reducing the tetrazolium dye MTT 3-(4,5-dimethylthiazol-2-yl)-2,5-diphenyltetrazolium bromide to its insoluble formazan, which has a purple color. Tetrazolium dye assays (commonalty known as the MTT assay) is used to measure cytotoxicity (loss of viable cells).

HepG2 cells [3] = assay: LDL-cholesterol uptake in HepG2 cells (3H-cholesterol); type: cell-based, human; details: 10 uM for 24 hours, FIG. 16
Procedure: To determine whether Compound 34 increases LDL-cholesterol uptake, LDL was isolated from human plasma using ultracentrifugation and the cholesterol content of the particle was radiolabeled with 3H-cholesterol. Hepatoma cells (HepG2) were cultured (0.25×10^6 cell/well in a 24-well plate) with or without 10 uM of B004 (compound 34) for 24 hours in DMEM. Radiolabeled LDL-cholesterol (LDL-c) was added to the cells for 4 hours. Cells were washed 3 times with PBS and left to air dry. 500 μl of isopropanol was added to each well and incubate with shaking at room temperature for 3 hours in a sealed container. 50 μl of the isopropanol was placed into a scintillation vial together with 4.5 ml of scintillation liquid cocktail (Scintiverse BD). 3H-cholesterol levels were read using a beta emission radioactive counter.

AST = test system: AST; set-up: species or system mice; details: mouse, in vivo, po
Procedure: 1) Single-dose experiments: mice were administered (oral gavage or intra-peritoneal injection) with 200 μl of 34 (30 mg/kg or 100 mg/kg) in 0.1% Tween 80+1% hydroxyethyl cellulose (HEC) in buffered (PBS pH7.4) solution. After 34 administration, 50-70 μl of blood was collected from the retro-orbital plexus every 4-6 hours (for a total of 24 hours). Blood was left to clot at room temperature for 20 min, followed by serum separation (spin at 1000 g for 10 min). Serum was analyzed as specified in the “Serum analyses” section. 2) Daily dosage experiments: mice were administered daily oral gavage with 200 μl of 34 (100 mg/kg) in 0.1% Tween80+1% hydroxyethyl cellulose (HEC) in buffered (PBS pH7.4) solution. 50-70 μl of blood was collected from the retro-orbital plexus on day 3 and day 5 after 34 administration, on day 5 mice were euthanized and liver were collected and analyzed as mentioned below under the “Liver analyses” section. Blood was left to clot at room temperature for 20 min, followed by serum separation (spin at 1000 g for 10 min). Serum was analyzed as described below: AST activity—using commercially available activity assay (SIGMA-ALDRICH, catalog # MAK055) following the manufacturer instruction.

albumin = assay: Intracellular albumin, HepG2 (ELISA); type: cell-based, human
Procedure: After 24 hours media was aspirated, cells were washed with HBSS followed by protein extraction using commercially available RIPA buffer (SIGMA-ALDRICH, catalog #20-188). Protein extracts (5 μgr) were used for albumin detection using commercially available ELISA kit (ABCAM, catalog #108788) following the manufacturer instruction.

`CC(=O)Oc1ccc(C2CC3(CCCCC3)c3c2[nH]c2ccccc32)cc1` (centres unmarked) [Compound 34] was tested, and the “Primary SP Basal_PCSK9 HepG2 SP % Inhib @ 5 μM” value (PCSK9; 5 μM, HepG2, single point) was 5.2%, the “accumulation of PCSK9 in culture media” value (PCSK9; 5 μM, HepG2 cells, FIGS. 2A-2B) was “significantly reduced accumulation of PCSK9 in culture media in a time-dependent and concentration-dependent manner” and the “Primary SP Basal_PCSK9 HepG2 SP % Inhib @ 50 μM” value (PCSK9; 50 μM, HepG2, single point) was 100.1%. The IC50 (PCSK9; HepG2, concentration response curve) was 3.5 µM, the “activity rating in words (PCSK9 inhibition, Table 2)” value (PCSK9; summary of Table 2 data) was “particularly strongly active” and the “PCSK9 binding to LDLR (EGF-A domain)” value [1] was “does not affect PCSK9 binding to LDLR (EGF-A domain)”. The “increase in LDLR protein levels” value (LDLR) was 21%, the cell death (HepG2 cells [2]; 20 μM and 50 μM, HepG2, FIG. 4B) was “increased cell death” and the “HepG2 cell survival (MTT)” value (HepG2 cells [2]; concentrations up to 5 μM, FIGS. 4A-4B) was “does not affect HepG2 cell survival at concentrations up to 5 μM”. The LDL-cholesterol uptake (HepG2 cells [3]) was “increases LDL-cholesterol uptake in HepG2 cells”, the “liver function (measured as AST activity)” value (AST; 100 mg/kg) was “not affected” and the “liver function (measured as AST activity)” value (AST; 100 mg/kg/day) was “not affected”. The intracellular albumin (albumin; 20 μM and 50 μM, HepG2, result of increased cell death) was “Reduction in secreted and intracellular albumin” and the intracellular albumin (albumin; up to 10 μM, 40 hours of incubation, HepG2, FIG. 6B) was “no changes in secreted or intracellular albumin”.
